In patent US12227498B2, “Heterocyclic amine derivative and pharmaceutical composition comprising same” (Daewoong Pharmaceutical Co., Ltd., priority 2018, dated 2025):

Columns and labels:
[1] = target: T1, BTK (Homo sapiens, UniProt Q06187); experiment: Inhibitory activity against BTK, ADP-Glo + BTK Kinase enzyme system kit (Promega); type: biochemical; details: BTK enzyme 1 ng/μl; ATP 10 µM; 15 min preincubation at room temperature; 1 hour at 30° C.; luminescence; duplicate
T1 construct: purchased Promega Corporation
Procedure: (§1) Inhibitory activities against BTK and ITK were measured for the compounds prepared in the above Examples as follows.
The inhibitory activities against BTK were evaluated using ‘ADP-Glo™+BTK Kinase enzyme system’ kit (Promega Corporation). […] 5 μl of substrate and 5 μl of ATP prepared so as to have a final concentration of 10 µM were added to the plate on which reactions were completed, and then allowed to react at 30° C. for 1 hour. All wells of the plate were treated with 25 μl of ADP-Glo™ reagent and allowed to react at 30° C. for 40 minutes. After that, all wells were treated with 50 μl of kinase detection buffer, and then reacted at 30° C. for 30 minutes under light shielding conditions. For the plate on which all reactions were completed, luminescence was measured and the results were calculated. Evaluation was carried out in duplicate, and negative control and positive control were calculated depending on whether or not the enzyme was added without treatment of the compound. The IC50 was calculated based on the calculated values.

[2] = target: T2, ITK (Homo sapiens, UniProt Q08881); experiment: Inhibitory activity against ITK, ADP-Glo + ITK Kinase enzyme system kit (Promega); type: biochemical; details: ITK enzyme 0.4 ng/μl; 15 min preincubation at room temperature; 1 hour at 30° C.; luminescence; duplicate
T2 construct: purchased Promega Corporation
T2 sequence (Q08881 1-620): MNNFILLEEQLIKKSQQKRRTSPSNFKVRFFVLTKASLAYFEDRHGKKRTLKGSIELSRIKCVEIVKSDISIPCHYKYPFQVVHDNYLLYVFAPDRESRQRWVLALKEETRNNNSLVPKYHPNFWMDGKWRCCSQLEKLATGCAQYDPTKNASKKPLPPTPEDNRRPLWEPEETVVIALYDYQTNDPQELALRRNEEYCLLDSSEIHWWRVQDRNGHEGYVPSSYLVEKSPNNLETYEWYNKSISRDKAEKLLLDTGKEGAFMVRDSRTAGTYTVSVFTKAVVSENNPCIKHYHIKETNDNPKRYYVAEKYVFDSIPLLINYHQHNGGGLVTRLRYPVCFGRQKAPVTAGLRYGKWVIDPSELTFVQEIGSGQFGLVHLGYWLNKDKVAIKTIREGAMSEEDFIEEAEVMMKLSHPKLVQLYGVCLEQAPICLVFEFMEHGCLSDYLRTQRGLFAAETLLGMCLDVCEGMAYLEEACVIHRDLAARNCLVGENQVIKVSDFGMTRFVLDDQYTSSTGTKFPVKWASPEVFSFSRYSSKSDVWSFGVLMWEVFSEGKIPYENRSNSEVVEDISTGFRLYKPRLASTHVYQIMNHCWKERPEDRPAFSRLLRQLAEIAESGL
Procedure: as §1
The inhibitory activity against ITK was evaluated using ‘ADP-Glo™+ITK Kinase enzyme system’ kit (Promega Corporation). […] To the plate on which reactions were completed, 5 μl of substrate and 5 μl of ATP prepared so as to have a final concentration of […] were added and then allowed to react at 30° C. for 1 hour. All wells of the plate were treated with 25 μl of ADP-Glo™ reagent and then allowed to react at 30° C. for 40 minutes. After that, all wells were treated with 50 μl of kinase detection buffer, and then allowed to react at 30° C. for 30 minutes under light shielding conditions. For the plate on which all reactions were completed, luminescence was measured and the results were calculated. Evaluation was carried out in duplicate, and negative control and positive control were calculated depending on whether or not the enzyme was added without treatment of the compound. The IC50 was calculated based on the calculated values.

T1 sequence (Q06187 whole entry): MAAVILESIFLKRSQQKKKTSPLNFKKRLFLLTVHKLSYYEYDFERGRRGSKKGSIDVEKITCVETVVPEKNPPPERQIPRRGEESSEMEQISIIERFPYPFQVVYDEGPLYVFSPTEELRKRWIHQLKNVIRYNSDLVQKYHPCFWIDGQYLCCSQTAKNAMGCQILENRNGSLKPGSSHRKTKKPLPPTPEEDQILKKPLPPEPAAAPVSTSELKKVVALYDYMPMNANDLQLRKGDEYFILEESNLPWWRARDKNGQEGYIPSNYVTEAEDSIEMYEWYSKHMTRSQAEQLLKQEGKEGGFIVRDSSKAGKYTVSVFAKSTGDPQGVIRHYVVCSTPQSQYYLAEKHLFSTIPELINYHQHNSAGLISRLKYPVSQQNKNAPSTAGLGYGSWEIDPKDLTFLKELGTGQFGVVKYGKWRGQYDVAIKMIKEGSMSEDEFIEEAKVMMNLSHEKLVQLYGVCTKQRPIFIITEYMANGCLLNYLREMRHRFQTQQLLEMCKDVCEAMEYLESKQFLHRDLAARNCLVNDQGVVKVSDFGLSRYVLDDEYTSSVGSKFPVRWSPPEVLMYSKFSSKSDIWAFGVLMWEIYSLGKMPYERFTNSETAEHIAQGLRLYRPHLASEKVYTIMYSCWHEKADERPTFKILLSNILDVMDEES

Compound	IC50 [1] [nM]	IC50 [2] [nM]
C=CC(=O)N1CCC[C@H](Nc2cc(CN3CCN(C(C)=O)CC3)cc(Nc3ncc(C)s3)n2)C1 [Example 20]	1.1	1.1
Cc1cc(CN2CCOCC2)cc(Nc2ncc(C)s2)n1 [Example 44, 5-methyl-N-(6-methyl-4-(morpholinomethyl)pyridin-2-yl) thiazol-2-amine]	> 1000	~1000
CC#CC(=O)N1CCC2CCN(c3cc(CN4CCOCC4)cc(Nc4ncc(C)s4)n3)CC21 (stereo not shown) [Example 29, 1-(6-(6-((5-methylthiazol-2-yl)amino)-4-(morpholinomethyl)pyridin-2-yl)octahydro-1H-pyrrolo[2,3-c]pyridin-1-yl) but-2-yn-1-one]	18.5	50.4
C=CC(=O)N1CCC[C@H](Nc2cc(CN3CCOCC3)cc(Nc3cc(Cl)[nH]n3)n2)C1 [Example 50, (S)-1-(3-(6-(5-chloro-1H-pyrazol-3-ylamino)-4-(morpholinomethyl)pyridin-2-ylamino)piperidin-1-yl) prop-2-en-1-one]	~1000	~1000
C=CC(=O)NC1CCN(c2cc(CN3CCOCC3)cc(Nc3ncc(C)s3)n2)CC1 [Example 27, N-(1-(6-((5-methylthiazol-2-yl)amino)-4-(morpholinomethyl)pyridin-2-yl)piperidin-4-yl) acrylamide]	85.2	43.8
C=CC(=O)N1CCC[C@H](Nc2cc(CN3CCN(CCC#N)CC3)cc(Nc3ncc(C)s3)n2)C1 [Example 34, (S)-3-(4-((2-((1-acryloylpiperidin-3-yl)amino)-6-((5-methylthiazol-2-yl)amino)pyridin-4-yl)methyl)piperazin-1-yl) propanenitrile]	1.1	1.7
C=CC(=O)N1CCC[C@H](Nc2cc(CN3CCOCC3)cc(Nc3ncccn3)n2)C1 [Example 54, (S)-1-(3-(4-(morpholinomethyl)-6-(pyrimidin-2-ylamino)pyridin-2-ylamino)piperidin-1-yl) prop-2-en-1-one]	~1000	~1000
C=CC(=O)N1CCC2CCN(c3cc(CN4CCOCC4)cc(Nc4ncc(C)s4)n3)CC21 (stereo not shown) [Example 28, 1-(6-(6-((5-methylthiazol-2-yl)amino)-4-(morpholinomethyl)pyridin-2-yl)octahydro-1H-pyrrolo[2,3-c]pyridin-1-yl) prop-2-en-1-one]	8.8	31.7
C=CC(=O)N1CCC[C@H](Nc2cc(OC3CCN(C)CC3)cc(Nc3ncc(C)s3)n2)C1 [Example 33, (S)-1-(3-((4-((1-methylpiperidin-4-yl)oxy)-6-((5-methylthiazol-2-yl)amino)pyridin-2-yl)amino)piperidin-1-yl) prop-2-en-1-one]	1.8	3.9
CC#CC(=O)N1CCC[C@H](Nc2cc(OC3CCN(C)CC3)cc(Nc3ncc(C)s3)n2)C1 [Example 41, (S)-1-(3-((4-((1-methylpiperidin-4-yl)oxy)-6-((5-methylthiazol-2-yl)amino)pyridin-2-yl)amino)piperidin-1-yl) but-2-yn-1-one]	9.5	128
C=CC(=O)N1CCC[C@H](Nc2cc(Cc3ccccn3)cc(Nc3ncc(C)s3)n2)C1 [Example 37, (S)-1-(3-((6-((5-methylthiazol-2-yl)amino)-4-(pyridin-2-ylmethyl)pyridin-2-yl)amino)piperidin-1-yl) prop-2-en-1-one]	3.2	1.9

Results, then the compound that gave them:

IC50 [1] [nM]	IC50 [2] [nM]	Compound
10.3	9.1	C=CC(=O)N1CCC(Nc2cc(CN3CCOCC3)cc(Nc3ncc(C)s3)n2)CC1 [Example 3, 1-(4-((6-((5-methylthiazol-2-yl)amino)-4-(morpholinomethyl)pyridin-2-yl)amino)piperidin-1-yl) prop-2-en-1-one]
2.3	47.3	C=CC(=O)N1CCC[C@H](Oc2cc(CN3CCOCC3)cc(Nc3ncc(C)s3)n2)C1 [Example 15, (S)-1-(3-((6-((5-methylthiazol-2-yl)amino)-4-(morpholinomethyl)pyridin-2-yl)oxy)piperidin-1-yl) prop-2-en-1-one]
1.1	> 1000	C=CC(=O)N1CCC[C@@H](Oc2cc(CN3CCOCC3)cc(Nc3ncc(C)s3)n2)C1 [Example 16, (R)-1-(3-((6-((5-methylthiazol-2-yl)amino)-4-(morpholinomethyl)pyridin-2-yl)oxy)piperidin-1-yl) prop-2-en-1-one]
3.6	3.5	C=CC(=O)N1CC[C@H](Nc2cc(CN3CCOCC3)cc(Nc3ncc(C)s3)n2)C1 [Example 7, (S)-1-(3-((6-((5-methylthiazol-2-yl)amino)-4-(morpholinomethyl)pyridin-2-yl)amino)pyrrolidin-1-yl) prop-2-en-1-one]
1.6	2.1	C=CC(=O)N1CCC[C@H](Nc2cc(CN3CCN(C)CC3)cc(Nc3ncc(C)s3)n2)C1 [Example 43]
3.1	2.6	C=CC(=O)N1CCC(Nc2cc(CN3CCOCC3)cc(Nc3ncc(C)s3)n2)C1 (stereo not shown) [Example 2, 1-(3-((6-((5-methylthiazol-2-yl)amino)-4-(morpholinomethyl)pyridin-2-yl)amino)pyrrolidin-1-yl) prop-2-en-1-one]
8.5	7.8	C=CC(=O)N1CCC(Oc2cc(CN3CCOCC3)cc(Nc3ncc(C)s3)n2)CC1 [Example 11, 1-(4-((6-((5-methylthiazol-2-yl)amino)-4-(morpholinomethyl)pyridin-2-yl)oxy)piperidin-1-yl) prop-2-en-1-one]
2.5	2.2	C=CC(=O)N1CCC[C@H](Nc2cc(CN3CCN(CC)CC3)cc(Nc3ncc(C)s3)n2)C1 [Example 42, (S)-1-(3-((4-((4-ethylpiperazin-1-yl)methyl)-6-((5-methylthiazol-2-yl)amino)pyridin-2-yl)amino)piperidin-1-yl) prop-2-en-1-one]
152	> 200	C=CC(=O)N1CCC[C@H](Nc2cc(CN3CCOCC3)cc(Nc3ncc(C)s3)n2)C1 [Example 5, (S)-1-(3-((6-((5-methylthiazol-2-yl)amino)-4-(morpholinomethyl)pyridin-2-yl)amino)piperidin-1-yl) prop-2-en-1-one]
3.3	49.1	CC#CC(=O)N1CCC(Nc2cc(CN3CCOCC3)cc(Nc3ncc(C)s3)n2)C1 (stereo not shown) [Example 14, 1-(3-((6-((5-methylthiazol-2-yl)amino)-4-(morpholinomethyl)pyridin-2-yl)amino)pyrrolidin-1-yl) but-2-yn-1-one]
~1000	~1000	C=CC(=O)N1CCC[C@H](Nc2nc(Nc3ncc(C)s3)cc(CN3CCOCC3)c2F)C1 [Example 52, (S)-1-(3-(3-fluoro-6-(5-methylthiazol-2-ylamino)-4-(morpholinomethyl)pyridin-2-ylamino)piperidin-1-yl) prop-2-en-1-one]
~1000	~1000	C=CC(=O)N1CCC[C@@H](Nc2nc(CN3CCOCC3)cc(Nc3ncc(C)s3)n2)C1 [Example 25, (R)-1-(3-((4-((5-methylthiazol-2-yl)amino)-6-(morpholinomethyl)pyrimidin-2-yl)amino)piperidin-1-yl) prop-2-en-1-one]
3	5.6	C=CC(=O)N1CCC[C@H](Nc2cc(CN3CCN(CC)CC3)cc(Nc3ncc(C)s3)n2)C1 [Example 32]
4.7	4.1	C=CC(=O)N1CCCC(Nc2cc(CN3CCOCC3)cc(Nc3ncc(C)s3)n2)C1 (stereo not shown) [Example 1, 1-(3-((6-((5-methylthiazol-2-yl)amino)-4-(morpholinomethyl)pyridin-2-yl)amino)piperidin-1-yl) prop-2-en-1-one]
27.7	36	C=CC(=O)N1CC[C@@H](Nc2cc(CN3CCOCC3)cc(Nc3ncc(C)s3)n2)C1 [Example 6, (R)-1-(3-((6-((5-methylthiazol-2-yl)amino)-4-(morpholinomethyl)pyridin-2-yl)amino)pyrrolidin-1-yl) prop-2-en-1-one]
